Laboratory results from patent US20230391739A1, “ARYL DERIVATIVES FOR TREATING TRPM3 MEDIATED DISORDERS” (Katholieke Universiteit Leuven, priority 2020, published 2023).

Target: T1, mouse TRPM3α2 (mTRPM3) ion channel (Mus musculus, UniProt J9SQF3)
T1 construct: expressed in transfected cells; host or cells: flip-in HEK293
Test: TRPM3 ion channel driven Ca2+ uptake, Fluo-4 AM assay, PS-stimulated (mTRPM3)
Assay type: cell-based
Conditions: TRPM3 overexpressing flip-in HEK293 cells stimulated with Pregnenolone sulfate (PS) 50 μM, activity ranges A, B, C
Description: Monitoring the TRPM3 Ion Channel Driven Ca^2+ Uptake.
In order to monitor the inhibition of the mouse TRPM3α2 (mTRPM3) ion channel by the compounds of the invention, a cellular system making use of an mTRPM3alpha2 or hTRPM3 overexpressing cell line (flip-in HEK293) was used. The TRPM3 channel was stimulated/opened with Pregnenolone sulfate (PS) (50 μM) which results in Ca^2+ influx.
For mTRPM3, the intracellular Ca^2+ was measured with a Calcium responsive dye, Fluor-4 AM ester (Invitrogen). Cells were cultured until a confluence of 80-90%, washed with Versene (Invitrogen) and detached from the surface by a short incubation with 0.05% Trypsin (Invitrogen). The trypsination process was stopped by the addition of complete cell culture medium (DMEM, glutamax, 10% FCS, NEAA, Pen-Strep). Cells were collected and resuspended in Krebs buffer without Calcium at RT.
Prior the cell seeding (±2000 cells/well into a black, 384 well plate (Greiner)) the diluted compound was added in the assay plate, together with the PS dissolved in Krebs buffer containing Calcium. […] Directly after cell addition the plates were read on an Envision fluorescence reader (Perkin Elmer) by an Excitation of 485 nm and emission at 535 nm.
Channel inhibition was calculated compared to a non-PS stimulated control versus a condition stimulated with PS (50 μM) with vehicle. The ability of the compounds of the invention to inhibit this activity was determined as: Percentage inhibition=[1−((RFU determined for sample with test compound present−RFU determined for sample with positive control inhibitor) divided by (RFU determined in the presence of vehicle−RFU determined for sample with positive control inhibitor))]*100.
The activities of the Example compounds tested are depicted in the table below.

T1 sequence (J9SQF3 1-1709 isoform J9SQF3-12): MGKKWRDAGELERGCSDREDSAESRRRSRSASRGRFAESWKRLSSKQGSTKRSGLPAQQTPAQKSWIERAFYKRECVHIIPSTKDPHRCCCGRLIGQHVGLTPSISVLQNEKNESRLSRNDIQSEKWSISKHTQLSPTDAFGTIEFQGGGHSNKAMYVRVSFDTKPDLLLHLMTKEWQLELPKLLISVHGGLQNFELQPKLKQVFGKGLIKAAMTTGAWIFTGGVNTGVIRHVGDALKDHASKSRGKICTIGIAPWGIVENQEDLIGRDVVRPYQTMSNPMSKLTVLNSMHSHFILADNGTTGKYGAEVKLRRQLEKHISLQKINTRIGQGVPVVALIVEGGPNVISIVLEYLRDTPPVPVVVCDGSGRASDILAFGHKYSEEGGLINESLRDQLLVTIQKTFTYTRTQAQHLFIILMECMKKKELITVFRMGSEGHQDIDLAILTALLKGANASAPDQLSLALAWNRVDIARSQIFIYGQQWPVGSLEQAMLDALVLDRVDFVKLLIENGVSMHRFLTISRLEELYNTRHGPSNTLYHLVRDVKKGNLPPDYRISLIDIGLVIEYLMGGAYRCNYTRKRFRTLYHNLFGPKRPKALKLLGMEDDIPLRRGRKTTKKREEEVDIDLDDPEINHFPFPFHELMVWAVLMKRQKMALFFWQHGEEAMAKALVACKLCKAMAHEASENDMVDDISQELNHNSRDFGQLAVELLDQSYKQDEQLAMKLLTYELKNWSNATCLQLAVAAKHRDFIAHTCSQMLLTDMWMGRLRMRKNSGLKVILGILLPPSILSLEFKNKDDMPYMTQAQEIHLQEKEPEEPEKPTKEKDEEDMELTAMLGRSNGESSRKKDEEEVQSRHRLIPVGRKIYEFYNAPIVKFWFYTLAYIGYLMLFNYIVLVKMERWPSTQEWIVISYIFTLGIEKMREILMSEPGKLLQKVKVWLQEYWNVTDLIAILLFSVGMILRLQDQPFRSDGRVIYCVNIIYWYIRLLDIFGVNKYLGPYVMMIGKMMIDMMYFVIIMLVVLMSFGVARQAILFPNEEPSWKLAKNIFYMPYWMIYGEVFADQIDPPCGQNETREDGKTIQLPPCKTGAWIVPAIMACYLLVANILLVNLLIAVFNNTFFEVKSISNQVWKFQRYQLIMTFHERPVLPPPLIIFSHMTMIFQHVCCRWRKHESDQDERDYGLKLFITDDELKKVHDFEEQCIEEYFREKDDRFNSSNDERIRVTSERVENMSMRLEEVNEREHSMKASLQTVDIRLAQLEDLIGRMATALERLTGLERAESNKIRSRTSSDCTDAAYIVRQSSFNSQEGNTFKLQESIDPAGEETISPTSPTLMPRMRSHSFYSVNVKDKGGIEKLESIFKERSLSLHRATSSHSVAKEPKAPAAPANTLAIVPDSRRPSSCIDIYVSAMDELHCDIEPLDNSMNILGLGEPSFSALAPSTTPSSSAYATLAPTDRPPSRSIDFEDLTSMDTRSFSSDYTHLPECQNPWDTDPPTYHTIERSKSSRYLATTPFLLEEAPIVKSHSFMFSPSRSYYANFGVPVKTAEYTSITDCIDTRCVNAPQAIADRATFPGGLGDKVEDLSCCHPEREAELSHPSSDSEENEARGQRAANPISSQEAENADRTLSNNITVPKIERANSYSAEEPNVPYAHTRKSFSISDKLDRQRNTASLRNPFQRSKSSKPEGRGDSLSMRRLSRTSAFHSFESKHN

Row | IC50 [µM] | SMILES
1 | > 20 | Cc1oc2cc(Cl)c(OCc3ccccc3)cc2c1C(=O)NC1CNCC1(F)F (single isomer, unassigned) [Cpd 300-En 2, 5-(benzyloxy)-6-chloro-N-(4,4-difluoropyrrolidin-3-yl)-2-methylbenzofuran-3-carboxamide]
2 | 1 to 20 | Cc1oc2ccc(OCc3ccccc3)cc2c1C(=O)N[C@H]1CC[C@H](C(C)(C)O)CC1 [Cpd 210, 5-(benzyloxy)-N-(trans-4-(2-hydroxypropan-2-yl)cyclohexyl)-2-methylbenzofuran-3-carboxamide]
3 | < 1 | Cc1oc2ccc(OCc3ccccc3)cc2c1C(=O)NC[C@@H]1CCCO1 [Cpd 090, (S)-5-(benzyloxy)-2-methyl-N-((tetrahydrofuran-2-yl)methyl)benzofuran-3-carboxamide]
4 | 1 to 20 | Cc1oc2ccc(OCc3ccccc3)cc2c1C(=O)NC1CCC(=O)NC1 (centres unmarked) [Cpd 111, 5-(benzyloxy)-2-methyl-N-(6-oxopiperidin-3-yl)benzofuran-3-carboxamide]
5 | > 20 | CCOC(=O)c1coc2ccc(OCc3ccccc3)cc12 [Cpd 029, ethyl 5-(benzyloxy)benzofuran-3-carboxylate]
6 | < 1 | Cc1oc2ccc(OCc3ccccc3)cc2c1C(=O)NC1CC2(CCNCC2)C1 [Cpd 180, 5-(benzyloxy)-2-methyl-N-(7-azaspiro[3.5]nonan-2-yl)benzofuran-3-carboxamide]
7 | 1 to 20 | Cc1oc2ccc(OCc3ccccc3)cc2c1C(=O)NCc1ccncc1 [Cpd 101, 5-(benzyloxy)-2-methyl-N-(pyridin-4-ylmethyl)benzofuran-3-carboxamide]
8 | < 1 | Cc1oc2ccc(OCc3ccccc3)cc2c1C(=O)NC1CCCNCC1 (centres unmarked) [Cpd 119, N-(azepan-4-yl)-5-(benzyloxy)-2-methylbenzofuran-3-carboxamide]
9 | 1 to 20 | COCCNC(=O)c1c(C)oc2ccc(OCc3ccccc3)cc12 [Cpd 044, 5-(benzyloxy)-N-(2-methoxyethyl)-2-methylbenzofuran-3-carboxamide]
10 | < 1 | Cc1oc2ccc(OCc3ccc(F)cc3)cc2c1C(=O)N[C@H]1CCNC1 [Cpd 097, (S)-5-((4-fluorobenzyl)oxy)-2-methyl-N-(pyrrolidin-3-yl)benzofuran-3-carboxamide]
11 | > 20 | Cc1oc2ccc(OCc3ccccc3)cc2c1C(=O)N1CCC(NC(=O)OC(C)(C)C)CC1 [Cpd 248, tert-butyl (1-(5-(benzyloxy)-2-methylbenzofuran-3-carbonyl)piperidin-4-yl)carbamate]
12 | < 1 | Cc1oc2ccc(OCc3ccccc3)cc2c1C(=O)NC1CCN2CCCC12 (centres unmarked) [Cpd 144, 5-(benzyloxy)-N-(hexahydro-1H-pyrrolizin-1-yl)-2-methylbenzofuran-3-carboxamide]
13 | 1 to 20 | Cc1cccc(COc2ccc3oc(C)c(C(=O)NS(=O)(=O)C4CC4)c3c2)c1 [Cpd 170, N-(cyclopropylsulfonyl)-2-methyl-5-((3-methylbenzyl)oxy)benzofuran-3-carboxamide]
14 | < 1 | Cc1oc2ccc(OCc3ccccc3)cc2c1C(=O)N[C@@H]1CCCNC1=O [Cpd 107, (R)-5-(benzyloxy)-2-methyl-N-(2-oxopiperidin-3-yl)benzofuran-3-carboxamide]
15 | < 1 | Cc1oc2ccc(OCc3ccccc3)cc2c1C(=O)N[C@@H]1C[C@H]2CNC[C@H]2C1 [Cpd 140, 5-(benzyloxy)-2-methyl-N-(trans-octahydrocyclopenta[c]pyrrol-5-yl)benzofuran-3-carboxamide]
16 | < 1 | Cc1oc2ccc(OCc3ccccc3F)cc2c1C(=O)NC(C)CO (single isomer, unassigned) [Cpd 328-En 2]
17 | < 1 | Cc1oc2ccc(OCc3ccccc3F)cc2c1C(=O)NC1(CO)CCOC1 (single isomer, unassigned) [Cpd 327-En 1, 5-((2-fluorobenzyl)oxy)-N-(3-(hydroxymethyl)tetrahydrofuran-3-yl)-2-methylbenzofuran-3-carboxamide]
18 | < 1 | Cc1oc2ccc(OCc3ccccc3)cc2c1C(=O)O [Cpd 002, 5-(benzyloxy)-2-methylbenzofuran-3-carboxylic acid]
19 | > 20 | Cc1oc2c(C#N)cc(OCc3ccccc3)cc2c1C(=O)NC1CNCC1(F)F (single isomer, unassigned) [Cpd 305-En 1, 5-(benzyloxy)-7-cyano-N-(4,4-difluoropyrrolidin-3-yl)-2-methylbenzofuran-3-carboxamide]

Row | IC50 [µM] | SMILES
20 | > 20 | Cc1oc2c(C)cc(OCc3ccccc3)cc2c1C(=O)NC1CNCC1(F)F (single isomer, unassigned) [Cpd 307-En 2, 5-(benzyloxy)-N-(4,4-difluoropyrrolidin-3-yl)-2,7-dimethylbenzofuran-3-carboxamide]
21 | < 1 | Cc1oc2ccc(OCc3ccccc3)cc2c1C(=O)NC1(CN)CCC1 [Cpd 082, N-(1-(aminomethyl)cyclobutyl)-5-(benzyloxy)-2-methylbenzofuran-3-carboxamide]
22 | > 20 | Cc1oc2ccc(OCc3ccccc3)cc2c1C(=O)N1CCCC(c2nc(C(C)C)no2)C1 (centres unmarked) [Cpd 243, (5-(benzyloxy)-2-methylbenzofuran-3-yl)(3-(3-isopropyl-1,2,4-oxadiazol-5-yl)piperidin-1-yl)-methanone]
23 | < 1 | Cc1oc2ccc(OCc3ccccc3F)cc2c1C(=O)NC(C)CO (single isomer, unassigned) [Cpd 328-En 1]
24 | 1 to 20 | Cc1oc2ccc(OCc3ccccc3)cc2c1C(=O)NC1(CO)CCN(C(=O)OC(C)(C)C)CC1 [Cpd 262, tert-butyl 4-(5-(benzyloxy)-2-methylbenzofuran-3-carboxamido)-4-(hydroxymethyl)piperidine-1-carboxylate]
25 | < 1 | Cc1oc2ccc(OCc3cccc(F)c3F)cc2c1C(=O)NC1(CO)CCOCC1 [Cpd 217, 5-((2,3-difluorobenzyl)oxy)-N-(4-(hydroxymethyl)tetrahydro-2H-pyran-4-yl)-2-methylbenzo-furan-3-carboxamide]
26 | < 1 | COCC(Oc1ccc2oc(C)c(C(=O)N[C@@H](CO)C(N)=O)c2c1)c1ccccc1 (single isomer, unassigned) [Cpd 346-En 1]
27 | > 20 | Cc1oc2ccc(OCc3ccccc3)cc2c1C(=O)N[C@@H]1CCN(C(=O)OC(C)(C)C)C1 [Cpd 238, tert-butyl (R)-3-(5-(benzyloxy)-2-methylbenzofuran-3-carboxamido)pyrrolidine-1-carboxylate]
28 | 1 to 20 | Cc1oc2ccc(OCc3ccc(F)cc3Cl)cc2c1C(=O)O [Cpd 022, 5-((2-chloro-4-fluorobenzyl)oxy)-2-methylbenzofuran-3-carboxylic acid]
29 | 1 to 20 | Cc1cc2oc(C)c(C(=O)NC3CNCC3(F)F)c2cc1OCc1ccccc1 (single isomer, unassigned) [Cpd 303-En 1, 5-(benzyloxy)-N-(4,4-difluoropyrrolidin-3-yl)-2,6-dimethylbenzofuran-3-carboxamide]
30 | 1 to 20 | Cc1ccc(COc2ccc3oc(C)c(C(=O)NC4CCN(C)CC4)c3c2)cc1 [Cpd 154, 2-methyl-5-((4-methylbenzyl)oxy)-N-(1-methylpiperidin-4-yl)benzofuran-3-carboxamide]
31 | 1 to 20 | CCNC(=O)c1c(C)oc2ccc(OCc3ccccc3)cc12 [Cpd 038, 5-(benzyloxy)-N-ethyl-2-methylbenzofuran-3-carboxamide]
32 | < 1 | Cc1oc2ccc(OCc3ccccc3)cc2c1C(=O)N[C@@H]1CCN(C(=O)OC(C)(C)C)[C@@H](C)C1 (racemic) [Cpd 251, tert-butyl trans-4-(5-(benzyloxy)-2-methylbenzofuran-3-carboxamido)-2-methylpiperidine-1-carboxylate]
33 | 1 to 20 | Cc1oc2ccc(OCc3cccc(C(F)(F)F)c3)cc2c1C(=O)NC1CCN(C)CC1 [Cpd 232, 2-methyl-N-(1-methylpiperidin-4-yl)-5-((3-(trifluoromethyl)benzyl)oxy)benzofuran-3-carboxamide]
34 | > 20 | Cc1oc2ccc(OCc3ccccc3)cc2c1C(=O)NC1CNC1 [Cpd 042, N-(azetidin-3-yl)-5-(benzyloxy)-2-methylbenzofuran-3-carboxamide]
35 | < 1 | Cc1oc2ccc(OCc3ccccc3)cc2c1C(=O)NC1CCNC(C)C1 (racemic) [Cpd 115, rac-5-(benzyloxy)-2-methyl-N-(cis-2-methylpiperidin-4-yl)benzofuran-3-carboxamide]
36 | < 1 | CCN1CCC(NC(=O)c2c(C)oc3ccc(OCc4ccccc4)cc23)C1=O (centres unmarked) [Cpd 147, 5-(benzyloxy)-N-(1-ethyl-2-oxopyrrolidin-3-yl)-2-methylbenzofuran-3-carboxamide]
37 | 1 to 20 | COCc1oc2ccc(OCc3cccc(F)c3)cc2c1C(=O)O [Cpd 020, 5-((3-fluorobenzyl)oxy)-2-(methoxymethyl)benzofuran-3-carboxylic acid]
38 | < 1 | Cc1oc2ccc(OCc3ccccc3)c(F)c2c1C(=O)NC1CNCC1(F)F (single isomer, unassigned) [Cpd 298-En 1, 5-(benzyloxy)-N-(4,4-difluoropyrrolidin-3-yl)-4-fluoro-2-methylbenzofuran-3-carboxamide]
